# Experimental data reported in paper PMC7557804, “The Anti-Microbial Peptide (Lin-SB056-1)2-K Reduces Pro-Inflammatory Cytokine Release through Interaction with Pseudomonas aeruginosa Lipopolysaccharide” (Antibiotics, 2020).
# Entries after “also recorded” stand apart in the source; their conditions may differ.
# What was measured:
# [1] = test system: THP-1 macrophages; test: Cytotoxicity (LDH release) towards THP-1 macrophages; format: cell-based, Human; settings: 4 h
# Experimental: Human non-small-cell lung adenocarcinoma A549 cells (ATCC CCL-185; LGC Standards, Milan, Italy) and human monocytic THP-1 cells (ATCC TIB-202; LGC Standards) were cultured in tissue culture flasks in Dulbecco’s modified essential medium (DMEM) (Euroclone, Milan, Italy) and RPMI 1640 medium (Euroclone), respectively. Both media were supplemented with 2 mM L-glutamine (Euroclone) and 10% heat-inactivated fetal bovine serum (FBS; Euroclone). Confluent monolayers were detached from the culture flask with 0.25% trypsin/1 mM EDTA solution (Euroclone), suspended in complete culture medium and seeded into flat-bottom 96-well plates at a final density of 1 × 10^4 cells/well (A549) and 2 × 10^4 cells/well (THP-1). A549 cells were cultured for 24 h at 37 °C, 5% CO2 in order to allow adhesion and formation of semi-confluent monolayers. THP-1 cells were cultured for 3 days (37 °C, 5% CO2) in the presence of 100 nM TPA (Sigma-Aldrich, St. Louis, MO, USA) to induce their differentiation into macrophage-like cells.
# The cytotoxicity of lin-SB056-1 and (lin-SB056-1)2-K towards A549 and THP-1 cells was evaluated to exclude a possible correlation between reduction in cytokine levels and decrease in cell numbers. To this end, culture supernatants of cells stimulated with LPS in the presence of the peptides were employed to quantify the amount of cytoplasmic LDH released by dead cells. Cells incubated in culture medium alone or in the presence of LPS served as an indication of spontaneous cell death (cell viability controls), while cells treated with a commercial lysis buffer (Pierce LDH cytotoxicity assay kit, Thermo Fisher Scientific) were used as cell death control (100% cell lysis). The enzymatic activity of LDH in cell supernatants was measured using the Pierce LDH cytotoxicity assay kit (Thermo Fisher Scientific) following manufacturer’s instructions. The cytotoxic effect was determined as follows: cytotoxicity (%) = [(LDH activity of A/LDH activity of B) × 100], where A represents peptide-treated or untreated cells (both in the presence and absence of LPS), and B corresponds to the cell lysis control.
# [2] = LAL assay, LPS neutralization; format: biochemical, Escherichia coli; settings: E. coli 011:B4 LPS 2 EU/mL, 37 °C
# Experimental: The ability of lin-SB056-1 and (lin-SB056-1)2-K to neutralize the activity of LPS was analyzed using a standardized LAL assay (Pierce LAL chromogenic endotoxin quantitation kit; Thermo Fisher Scientific). Peptides at different concentrations (2.4 to 19.25 μM) were pre-incubated with E. coli 011:B4 LPS (2 Endotoxin Units (EU)/mL; EU = unit of measurement for endotoxin activity) for 30 min (37 °C, shaking) in order to promote the interaction between the two molecules. LPS alone was used as positive control. Following incubation, peptide-treated and untreated samples were mixed with the LAL reagent (1:1 ratio) and incubated for 10 min at 37 °C. Subsequently, 100 μL of the chromogenic substrate were added and incubated with the samples for 6 min. The reaction was terminated by adding 100 μL of acetic acid (25% v/v), and absorbance was measured at 405 nm ([…]) using a microplate reader (Multiscan FC, Life Technologies Italia, Monza, Italy). The amount of peptide-sequestered LPS was determined as follows: LPS neutralization (%) = [100 − (ODpeptide/ODpositive control × 100)].
# [3] = BODIPY TR cadaverine (BC) fluorescent displacement assay, LPS binding; parameters: species or system P. aeruginosa; settings: 50 mM Tris-HCl, pH 7.4, 25 °C
# Experimental: Measurement of the ability of lin-SB056-1 and its dendrimeric derivative to bind P. aeruginosa serotype 10 LPS (Sigma-Aldrich) in vitro was performed by a fluorescent displacement assay using the BODIPY TR cadaverine (BC) probe (5-(((4-(4,4-difluoro-5-(2-thienyl)-4-bora-3a,4a-diaza-s-indacene-3-yl)phenoxy)acetyl)amino)pentylamine, hydrochloride); Thermo Fisher Scientific), as described elsewhere. BC binds to LPS by recognizing the lipid A portion and the probe fluorescence is quenched. When a peptide able to interact with LPS is added, BC is displaced from the complex and its fluorescence increases. LPS binding assays were carried out in 50 mM Tris-HCl buffer, pH 7.4. Aliquots of the peptides at a final concentration of 0.1 μM were successively added to a cuvette containing the LPS/BC complex (10 µg/mL P. aeruginosa LPS and 10 µM BC). Fluorescence measurements were performed with a Perkin-Elmer LS 55B spectrofluorometer (Perkin-Elmer, Waltham, MA, USA) using a thermostated (25 °C) cuvette apparatus (excitation: 580 nm; emission: 620 nm).
substance,measurement,setting,value
"[KWKIRVRLSA]2-K [(lin-SB056-1)2-K, dendrimeric derivative of lin-SB056-1]","cell death (LDH release), with LPS","[1]; LPS-stimulated THP-1 macrophages, up to 19.25 μM (highest tested), 37 °C, 5% CO2, relative to cell lysis control, at least three independent experiments",less than 5%
same,toxicity,"[1]; LPS-stimulated THP-1 macrophages, up to 19.25 μM, LDH release",no detectable toxicity
same,"cell death (LDH release), co-cultured with peptide and LPS","[1]; THP-1 macrophages, 19.25 μM peptide with LPS, 37 °C, 5% CO2, mean of at least three independent experiments",5%
same,"cell death (LDH release), in the absence of LPS","[1]; THP-1 macrophages, 19.25 μM peptide, no LPS, 37 °C, 5% CO2, mean of at least three independent experiments",14%
same,LPS neutralization,"[2]; 19.25 μM peptide, pre-incubation 30 min, shaking, LAL reagent 10 min, chromogenic substrate 6 min, absorbance 405 nm (OD450), vs peptide-untreated control, mean of three independent experiments",~100%
same,LPS neutralization / LAL activity,"[2]; 2.4 to 19.25 μM peptide, 30 min",higher LPS-binding ability than lin-SB056-1; also recorded: reduction of LAL activity
same,LPS-binding affinity compared to monomeric form,[3]; BC displacement,significantly greater affinity
same,ED50 (Effective Displacement; peptide concentration displacing half of the BC),"[3]; P. aeruginosa serotype 10 LPS 10 µg/mL, BC 10 µM, excitation 580 nm, emission 620 nm, mean of three independent experiments, SD not exceeding 5%",approximately 0.4 µM
